Results on 37 compounds are retold here after patent publication US11540518B2, “Fungicidal oxadiazoles” (FMC Corporation, priority 2017, dated 2023).

The subject of one assay is Phakopsora pachyrhizi. The experiment in a line: Test A: Asian soybean rust control on soybean seedlings. It counts as in vivo. Particulars: sprayed to run-off on soybean seedlings, inoculated the following day, 100 = 100% disease control, 0 = no control. The text has this:
General protocol for preparing test suspensions for Tests A-C: the test compounds were first dissolved in acetone in an amount equal to 3% of the final volume and then suspended at the desired concentration (in ppm) in acetone and purified water (50/50 mix by volume) containing 250 ppm of the surfactant PEG400 (polyhydric alcohol esters). The resulting test suspensions were then used in Tests A-C.
The test solution was sprayed to the point of run-off on soybean seedlings. The following day the seedlings were inoculated with a spore suspension of Phakopsora pachyrhizi (the causal agent of Asian soybean rust) and incubated in a saturated atmosphere at 22° C. for 24 h, and then moved to a growth chamber at 22° C. for 8 days, after which time visual disease ratings were made.
Results for Tests A-C are given in Table A. In the Table, a rating of 100 indicates 100% disease control and a rating of 0 indicates no disease control (relative to the controls). A dash (-) indicates the compound was not tested.

The subject of assay [1] is Puccinia recondita f. sp. tritici. The assay is described as follows: Test C: wheat leaf rust control on wheat seedlings. The format is in vivo. The following applies: sprayed to run-off on wheat seedlings, inoculated the following day, 100 = 100% disease control, 0 = no control. An excerpt:
General protocol for preparing test suspensions for Tests A-C: the test compounds were first dissolved in acetone in an amount equal to 3% of the final volume and then suspended at the desired concentration (in ppm) in acetone and purified water (50/50 mix by volume) containing 250 ppm of the surfactant PEG400 (polyhydric alcohol esters). The resulting test suspensions were then used in Tests A-C. The test solution was sprayed to the point of run-off on wheat seedlings. The following day the seedlings were inoculated with a spore suspension of Puccinia recondita f. sp. tritici (the causal agent of wheat leaf rust) and incubated in a saturated atmosphere at 20° C. for 24 h, and then moved to a growth chamber at 20° C. for 6 days, after which time disease ratings were made. Results for Tests A-C are given in Table A. In the Table, a rating of 100 indicates 100% disease control and a rating of 0 indicates no disease control (relative to the controls). A dash (-) indicates the compound was not tested.

Take `CC(OC(N)=O)c1ccc(-c2noc(C(F)(F)F)n2)cc1` (centres unmarked) [Compound 84]: the “Test A disease control rating” value in the assay on Phakopsora pachyrhizi (10 ppm) turned out to be 100%. Also, the “Test C disease control rating” value in assay [1] (10 ppm) was 100%.
With `NC(=O)OCc1ccc(-c2noc(C(F)(F)F)n2)o1` [Compound 80], the “Test A disease control rating” value in the assay with Phakopsora pachyrhizi (10 ppm) turned out to be 0%. For the same compound, the “Test C disease control rating” value in assay [1] (10 ppm) came out at 0%.
As for `COC(=O)c1ccc(CNC(=O)OC(c2ccccc2)c2ccc(-c3noc(C(F)(F)F)n3)cc2)cc1` (centres unmarked) [Compound 119], in the assay with Phakopsora pachyrhizi (250 ppm), the “Test A disease control rating” value worked out at 100%. Besides, the “Test C disease control rating” value in assay [1] (250 ppm) is listed as 74%.
As to `CCOC(=O)NN=Cc1ccc(-c2noc(C(F)(F)F)n2)cc1` [Compound 107], in the assay with Phakopsora pachyrhizi (10 ppm), the “Test A disease control rating” value amounted to 100%. Besides, the “Test C disease control rating” value in assay [1] (10 ppm) is given as 99%.
In the same order, the values of `CC#CCNC(=O)OCc1ccc(-c2noc(C(F)(F)F)n2)cc1` [Compound 36] are 100% and 100%.
On to `O=C(Nc1cccnc1)OCCc1ccc(-c2noc(C(F)(F)F)n2)cc1` [Compound 34], for which the “Test A disease control rating” value in the assay on Phakopsora pachyrhizi (50 ppm) is listed as 100%. In addition, the “Test C disease control rating” value in assay [1] (50 ppm) is given as 98%.
As to `O=C(OCCc1ccc(-c2noc(C(F)(F)F)n2)cc1)n1ccnc1` [Compound 40, 2-[4-[5-(trifluoromethyl)-1,2,4-oxadiazol-3-yl]phenyl]ethyl-1H-imidazole-1-carboxylate], the pest or weed control at 10 ppm was 0% in the assay on Phakopsora pachyrhizi (Phakopsora pachyrhizi, 216 h, 10 ppm, read-out: Test A disease control rating) and 18% in assay [1] (Puccinia recondita, 168 h, 10 ppm, read-out: Test C disease control rating).
For `CCN(CC)C(=O)OCc1ccc(-c2noc(C(F)(F)F)n2)cc1` [Compound 53], in the assay on Phakopsora pachyrhizi (10 ppm), the “Test A disease control rating” value is given as 100%. In assay [1] (10 ppm), the “Test C disease control rating” value came out at 68%.
`C#CCCNC(=O)OCCCc1ccc(-c2noc(C(F)(F)F)n2)cc1` [Compound 65]: the “Test A disease control rating” value in the assay with Phakopsora pachyrhizi (50 ppm) came out at 100%. Further, the “Test C disease control rating” value in assay [1] (50 ppm) was 100%.
For the compound `NC(=O)OC(c1ccccc1)c1ccc(-c2noc(C(F)(F)F)n2)cc1` (centres unmarked) [Compound 117], the “Test A disease control rating” value in the assay on Phakopsora pachyrhizi (250 ppm) was found to be 100%. Also, in assay [1] (250 ppm), the “Test C disease control rating” value is listed as 100%.
Consider `COC(=O)c1ccc(NC(=O)OC(C)c2ccc(-c3noc(C(F)(F)F)n3)cc2)cc1` (centres unmarked) [Compound 48], for which, in the assay on Phakopsora pachyrhizi (50 ppm), the “Test A disease control rating” value is 100%. Also, the “Test C disease control rating” value in assay [1] (50 ppm) stood at 97%.
Turning to `NC(=O)OCCc1ccc(-c2noc(C(F)(F)F)n2)cc1` [Compound 41], in the assay on Phakopsora pachyrhizi (10 ppm), the “Test A disease control rating” value was 100%. In addition, the “Test C disease control rating” value in assay [1] (10 ppm) is given as 99%.
On to `O=C(OCc1ccc(-c2noc(C(F)(F)F)n2)o1)n1ccnc1` [Compound 82], for which the pest or weed control at 50 ppm with Phakopsora pachyrhizi (Phakopsora pachyrhizi, 216 h, 50 ppm, read-out: Test A disease control rating) was determined as 89%; in assay [1] (Puccinia recondita, 168 h, 50 ppm, read-out: Test C disease control rating), 0%.
For the compound `CNC(=O)OCCCc1ccc(-c2noc(C(F)(F)F)n2)cc1` [Compound 31], the “Test A disease control rating” value in the assay with Phakopsora pachyrhizi (10 ppm) worked out at 100%. The “Test C disease control rating” value in assay [1] (10 ppm) was 99%.
Take `O=C(Nc1cccnc1)OCc1ccc(-c2noc(C(F)(F)F)n2)cc1` [Compound 22]: the “Test A disease control rating” value in the assay with Phakopsora pachyrhizi (10 ppm) was 99%. Further, in assay [1] (10 ppm), the “Test C disease control rating” value is 97%.
In the case of `CCOC(=O)c1ccc(NC(=O)OC(C)c2ccc(-c3noc(C(F)(F)F)n3)cc2)cc1` (centres unmarked) [Compound 58], in the assay with Phakopsora pachyrhizi (50 ppm), the “Test A disease control rating” value is given as 100%. Besides, the “Test C disease control rating” value in assay [1] (50 ppm) stood at 79%.
As for `CC(C)(C)OC(=O)NN=Cc1ccc(-c2noc(C(F)(F)F)n2)cc1` [Compound 106], the “Test A disease control rating” value with Phakopsora pachyrhizi (10 ppm) was found to be 97%. Also, the “Test C disease control rating” value in assay [1] (10 ppm) stood at 68%.
`CCOC(=O)c1ccc(NC(=O)OCc2ccc(-c3noc(C(F)(F)F)n3)cc2)cc1` [Compound 57]: the “Test A disease control rating” value in the assay with Phakopsora pachyrhizi (10 ppm) is reported as 100%. Further, the “Test C disease control rating” value in assay [1] (10 ppm) is on record as 0%.
`O=C(OC(c1ccccc1)c1ccc(-c2noc(C(F)(F)F)n2)cc1)n1ccnc1` (centres unmarked) [Compound 111]: in the assay with Phakopsora pachyrhizi (250 ppm), the “Test A disease control rating” value stood at 100%. In addition, the “Test C disease control rating” value in assay [1] (250 ppm) is on record as 100%.
Consider `CCOC(=O)c1ccc(CNC(=O)OC(C)c2ccc(-c3noc(C(F)(F)F)n3)cc2)cc1` (racemic) [Compound 27], for which, in the assay on Phakopsora pachyrhizi (10 ppm), the “Test A disease control rating” value worked out at 100%. Moreover, in assay [1] (10 ppm), the “Test C disease control rating” value came to 0%.
With `CCOC(=O)c1ccc(NC(=O)OCCc2ccc(-c3noc(C(F)(F)F)n3)cc2)cc1` [Compound 59], the “Test A disease control rating” value in the assay with Phakopsora pachyrhizi (50 ppm) was 96%. Moreover, the “Test C disease control rating” value in assay [1] (50 ppm) is on record as 0%.
In the same order, the values of `O=C(OCCCc1ccc(-c2noc(C(F)(F)F)n2)cc1)n1ccnc1` [Compound 21] are 100% and 99%.
In the same order, the values of `CCOC(=O)c1ccc(CNC(=O)OCCc2ccc(-c3noc(C(F)(F)F)n3)cc2)cc1` [Compound 68] are 99% and 0%.
For the compound `CCNC(=O)OCCCc1ccc(-c2noc(C(F)(F)F)n2)cc1` [Compound 20], the “Test A disease control rating” value in the assay with Phakopsora pachyrhizi (10 ppm) came out at 100%. Also, the “Test C disease control rating” value in assay [1] (10 ppm) was 99%.
For `CCNC(=O)OC(C)c1ccc(-c2noc(C(F)(F)F)n2)cc1` (racemic) [Compound 19] the same measures were 100% and 74%.
Turning to `COc1ccc(C(OC(=O)n2ccnc2)c2ccc(-c3noc(C(F)(F)F)n3)cc2)cc1` (centres unmarked) [Compound 83], the “Test A disease control rating” value with Phakopsora pachyrhizi (50 ppm) amounted to 100%. In addition, the “Test C disease control rating” value in assay [1] (50 ppm) came to 100%.
Consider `C#CCCNC(=O)OCCc1ccc(-c2noc(C(F)(F)F)n2)cc1` [Compound 66], for which, in the assay with Phakopsora pachyrhizi (50 ppm), the “Test A disease control rating” value is 100%. Further, the “Test C disease control rating” value in assay [1] (50 ppm) stood at 100%.
As to `CC(OC(=O)n1ccnc1)c1ccc(-c2noc(C(F)(F)F)n2)cc1` (centres unmarked) [Compound 70], the “Test A disease control rating” value with Phakopsora pachyrhizi (10 ppm) came to 99%. In addition, the “Test C disease control rating” value in assay [1] (10 ppm) is 68%.
For `CONC(=O)OCc1ccc(-c2noc(C(F)(F)F)n2)cc1` [Compound 136] the same measures were 79% and 0%.
`CCNC(=O)OC(c1ccccc1)c1ccc(-c2noc(C(F)(F)F)n2)cc1` (centres unmarked) [Compound 110]: the “Test A disease control rating” value in the assay with Phakopsora pachyrhizi (250 ppm) was 100%. Also, the “Test C disease control rating” value in assay [1] (250 ppm) worked out at 100%.
On to `COC(=O)c1ccc(CNC(=O)OCc2ccc(-c3noc(C(F)(F)F)n3)cc2)cc1` [Compound 24], for which the “Test A disease control rating” value in the assay on Phakopsora pachyrhizi (10 ppm) came out at 13%. In addition, the “Test C disease control rating” value in assay [1] (10 ppm) is 68%.
Regarding `C#CCNC(=O)OCc1ccc(-c2noc(C(F)(F)F)n2)s1` [Compound 37], the “Test A disease control rating” value in the assay with Phakopsora pachyrhizi (50 ppm) is given as 100%. For the same compound, the “Test C disease control rating” value in assay [1] (50 ppm) stood at 100%.
For the compound `C#CCNC(=O)OCCc1ccc(-c2noc(C(F)(F)F)n2)cc1` [Compound 45], in the assay with Phakopsora pachyrhizi (10 ppm), the “Test A disease control rating” value was 100%. Further, the “Test C disease control rating” value in assay [1] (10 ppm) is 93%.
With `CC#CCNC(=O)OCCc1ccc(-c2noc(C(F)(F)F)n2)cc1` [Compound 63], the “Test A disease control rating” value in the assay on Phakopsora pachyrhizi (50 ppm) is recorded as 100%. Further, in assay [1] (50 ppm), the “Test C disease control rating” value was found to be 100%.
`C=CCNC(=O)OCc1ccc(-c2noc(C(F)(F)F)n2)cc1` [Compound 51]: in the assay with Phakopsora pachyrhizi (10 ppm), the “Test A disease control rating” value is given as 100%. In assay [1] (10 ppm), the “Test C disease control rating” value turned out to be 99%.
On to `CCCNC(=O)OC(C)c1ccc(-c2noc(C(F)(F)F)n2)s1` (centres unmarked) [Compound 74], for which the “Test A disease control rating” value in the assay on Phakopsora pachyrhizi (10 ppm) was determined as 100%. In assay [1] (10 ppm), the “Test C disease control rating” value turned out to be 98%.
In the same order, the values of `CCCNC(=O)OC(C)c1ccc(-c2noc(C(F)(F)F)n2)cc1` (centres unmarked) [Compound 73] are 100% and 68%.
